Measured values taken from patent US8592435B2, “Nitrogen-containing six-membered aromatic ring derivatives and pharmaceutical products containing the same” (Daiichi Sankyo Company, Limited, priority 2007, dated 2013).
Where a name gives a salt, the structure may show the parent alone.

Assays:
[1] = tested on: mixture of human vascular endothelial cells and fibroblasts; assay: Test Example 2: ability to promote angiogenesis (angiogenesis test kit KZ-1000); format: cell-based; conditions: for activity at 3 µM: Compound Conc. = 3 μM
Description: Using an angiogenesis test kit containing a mixture of human vascular endothelial cells and fibroblasts [KZ-1000; Kurabo], the ability of test compounds to promote angiogenesis was evaluated. Each test compound was added on days 1, 4, and 7 of the incubation period. On day 9, cells were immunostained with CD31 and photographed. Control cells were cultured under the same conditions, only without the addition of a test compound, and photographed.
The lumen length of the blood vessel was quantified from the obtained images using an angiogenesis-quantification software. The ability (%) of each test compound to promote angiogenesis was calculated from the following equation: The ability to promote angiogenesis (%)=[(measurement with a compound of interest)/(measurement of control)]×100
Example Compounds shown in Table 26 were used as test compounds.
Since bFGF gives a measurement of about 120 in this test, 120 is used as the threshold to determine whether a given compound has the ability to promote angiogenesis.

[2] = tested on: hippocampal neurons; assay: Test Example 1: ability to promote axonal outgrowth; format: cell-based, Wistar rats; conditions: for activity at 3 µM: Compound Conc. = 3 μM
Description: According to the method of M. P. Mattson [M. P. Mattson, Brain Res. Rev., 13, 179, (1988)], the hippocampal region was isolated from 18-day embryos of female Wistar rats and the neurons were dispersed using the papain dissociation system. Hippocampal neuron were suspended in 5% Nu-serum+B27 supplement+Neurobasal medium at 5×10^4 cells/well/2 mL. 2 mL of the cell suspension were inoculated on a poly-D-lysine-coated 36φ dish and the neuron were incubated at 37° C. in a 5% CO2 incubator.
On day 3 of the incubation period, 1 mL of the culture medium was replaced with 1 mL of 5% Nu-serum+B27 supplement+Neurobasal medium containing 2 mM AraC. Each test compound was added to the culture on day 3 and day 7 of the incubation period. On day 9, cells were fixed in a 4% paraformaldehyde solution. The nerve axons of the fixed cells were stained with the Rabbit anti-growth-associated protein-43 polyclonal antibody and the stained cells were quantified using Kurabo neuron outgrowth-quantication software.
The ability (%) of each test compound to promote axonal outgrowth was calculated from the following equation: The ability to promote axonal outgrowth (%)=[(measurement with a compound of interest)/(measurement of control)]×100
Example Compounds shown in Table 25 were used as test compounds and were each added at concentrations of 3 μM and 0.3 μM.
Since bFGF gives a measurement of about 120 in this test, 120 is used as the threshold to determine whether a given compound has the ability to promote axonal outgrowth

[3] = target: T1, chemokine receptor CCR3 (Homo sapiens, UniProt P51677); assay: Affinity to chemokine receptor CCR3; format: binding; conditions: at a concentration of 10 μM
T1 sequence (P51677 1-355): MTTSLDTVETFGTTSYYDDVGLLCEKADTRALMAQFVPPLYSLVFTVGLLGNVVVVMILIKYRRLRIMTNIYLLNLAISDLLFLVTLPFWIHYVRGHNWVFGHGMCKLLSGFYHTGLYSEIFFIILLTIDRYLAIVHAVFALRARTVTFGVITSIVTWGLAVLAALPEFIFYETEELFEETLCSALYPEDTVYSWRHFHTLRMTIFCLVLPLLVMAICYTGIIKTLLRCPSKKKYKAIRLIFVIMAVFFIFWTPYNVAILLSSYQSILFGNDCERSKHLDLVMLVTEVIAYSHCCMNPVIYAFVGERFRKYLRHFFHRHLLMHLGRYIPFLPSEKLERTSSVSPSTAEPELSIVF
Description: Although the compounds of the present invention are novel compounds, compounds having a partly similar skeleton are described, for example, in Published Japanese Translation of PCT International Application No. 2003-507456, WO 01/79170 and WO 00/23076.

[4] = tested on: critical limb ischemia model (left femoral artery excised); assay: Test Example 4: lower limb ischemia (critical limb ischemia) model in mice; format: in vivo, Balb/c mice; conditions: oral once daily 0.1 or 1.0 mg/kg for 10 days from femoral artery excision, vs Vehicle
Description: According to the method of Ichiro Masaki [Circ Res. 90; 966-973 (2002)], the left femoral artery of Balb/c mice was excised to establish a model of critical limb ischemia (n=29 to 30).
Test compounds used were Example Compounds 65, 92, 114, 130, 135 and 136, each of which was orally administered once daily at a dose of 0.1 mg/kg or 1.0 mg/kg for 10 days starting from the day of femoral artery excision.
The results are shown in FIGS. 1 to 6 in which FIGS. 1, 2, 3, 4, 5 and 6 show the results of Example Compounds 65, 92, 114, 130, 135 and 136, respectively.
In the figures, a thick solid line indicates a Vehicle group, a thin dotted line indicates a group administered 0.1 mg/kg/day of each compound, and a thin solid line indicates a group administered 1.0 mg/kg/day of each compound.
*: P<0.05, **: P<0.01, ***: P<0.001 vs Vehicle by Wilcoxon's test.

[5] = tested on: spinal cord neurons; assay: Test Example 3: ability to promote the neurite outgrowth of spinal cord neurons; format: cell-based, Wistar rats; conditions: for Promotion of spinal cord neurite outgrowth (%): Compound Conc. = 0.1 μM, % of control, day 3
Description: According to the method of Martin G. Hanson Jr. [J. Neurosci., 1998 Sep. 15; 18(18): 7361-71], the spinal cord region was isolated from 15-day embryos of female Wistar rats and the cells were dispersed using the papain dissociation system. Neurons were collected using 6.8% Metrizamide density gradient and were suspended in 2% FBS+Leibovitz's −15 medium so that the density of the cells will be 2×10^3 cells/well/200 μL. 200 μL of the cell suspension was inoculated on a poly-D-lysine/laminin-coated 96 well plate and the plate was incubated in an incubator at 37° C. Test compounds were added 1 hour after seeding of cells.
On day 3 of the incubation period, neurons were stained with Calcein-AM and the lengths of neurites were determined using IN Cell Analyzer (GE Healthcare Bioscience).
The ability (%) of each test compound to promote neurite outgrowth was calculated from the following equation: The ability to promote neurite outgrowth (%)=[(measurement with a compound of interest)/(measurement of control)]×100
Example Compounds 65, 71, 74, 92, 130 and 135 were used as test compounds and were each added at a concentration of 0.1 μM.
The results are shown in Table 27. bFGF gives a measurement of about 130 in this test.

[6] = Homo sapiens, 216 h, lumen length, % of control, day 9, read-out: Promotion of angiogenesis (%)
[7] = Hippocampal neuron, 216 h, % of control, rat hippocampal neurons, day 9, read-out: Promotion of axonal outgrowth (%)
[8] = reference, concentration not given, used as threshold

Row | Compound | activity at 3 µM [1, 6] | activity at 3 µM [2, 7] | also measured
1 | Cc1nc(OCC(=O)N(C)C2CCN(Cc3ccc(F)cc3)CC2)nc(C)c1N [Compound 85, 2-(5-amino-4,6-dimethylpyrimidine-2-yloxy)-N-(1-(4-fluorobenzyl)piperidine-4-yl)-N-methylacetamide] | 123% | 140% | affinity to chemokine receptor CCR3 [3]: 2.4%
2 | Cc1nc(OCC(=O)N(C)C2CCN(C(=O)C3CC3)CC2)nc(C)c1N [Compound 92, 2-(5-amino-4,6-dimethylpyrimidine-2-yloxy)-N-(1-(cyclopropanecarbonyl)piperidine-4-yl)-N-methylacetamide] | 153% | 127% | survival rate of lower limb [4]: increased survival rate; Promotion of spinal cord neurite outgrowth (%) [5]: 120%
3 | CN(C(=O)Cn1cc(F)c(N)nc1=O)C1CCN(Cc2ccccc2)CC1 [Compound 114, 2-(4-amino-5-fluoro-2-oxopyrimidine-1(2H)-yl)-N-(1-benzylpiperidine-4-yl)-N-methylacetamide] | 125% | 183% | survival rate of lower limb [4]: increased survival rate
4 | Cc1nc(OCC(=O)N(C)C2CCN(C(=O)c3ccccc3)CC2)nc(C)c1N [Compound 74, 2-(5-amino-4,6-dimethylpyrimidine-2-yloxy)-N-(1-benzoylpiperidine-4-yl)-N-methylacetamide] | 136% | 159% | Promotion of spinal cord neurite outgrowth (%) [5]: 125%
5 | CN(C)c1ccc(OCC(=O)N(C)C2CCN(C(=O)C3CC3)CC2)nn1 [Compound 136, N-(1-(cyclopropanecarbonyl)piperidine-4-yl)-2-(6-(dimethylamino)pyridazine-3-yloxy)-N-methylacetamide] | – | 133% | survival rate of lower limb [4]: increased survival rate; activity at 0.3 µM ([1]; Homo sapiens, 216 h, Compound Conc. = 0.3 μM, lumen length, % of control, day 9, read-out: Promotion of angiogenesis (%)): 110%
6 | Cc1nc(OCC(=O)N(C)C2CCN(CC3CCCCC3)CC2)nc(C)c1N [Compound 71, 2-(5-amino-4,6-dimethylpyrimidine-2-yloxy)-N-(1-(cyclohexylmethyl)piperidine-4-yl)-N-methylacetamide] | 126% | 140% | Promotion of spinal cord neurite outgrowth (%) [5]: 139%
7 | Cc1nc(OCC(=O)N(C)C2CCN(Cc3cc(F)c(F)c(F)c3)CC2)nc(C)c1N [Compound 91, 2-(5-amino-4,6-dimethylpyrimidine-2-yloxy)-N-methyl-N-(1-(3,4,5-trifluorobenzyl)piperidine-4-yl)acetamide] | 124% | 150% | affinity to chemokine receptor CCR3 [3]: 18%
8 | Cc1nc(OCC(=O)NC2CCN(C(=O)c3ccc(F)cc3)CC2)nc(C)c1N [Compound 102, 2-(5-amino-4,6-dimethylpyrimidine-2-yloxy)-N-(1-(4-fluorobenzoyl)piperidine-4-yl)acetamide] | – | 233% | affinity to chemokine receptor CCR3 [3]: 0.0%
9 | Cc1cnc(N)nc1NCC(=O)N(C)C1CCN(Cc2ccccc2)CC1 [Compound 111, 2-(2-amino-5-methylpyrimidine-4-ylamino)-N-(1-benzylpiperidine-4-yl)-N-methylacetamide maleate] | 121% | – | activity at 0.3 µM ([2]; Hippocampal neuron, 216 h, Compound Conc. = 0.3 μM, % of control, rat hippocampal neurons, day 9, read-out: Promotion of axonal outgrowth (%)): 118%
10 | bFGF: basic fibroblast growth factor (bFGF), a growth factor known to promote angiogenesis; reference that sets the threshold | – | – | Promotion of angiogenesis, measurement of bFGF in this test [1, 8]: about 120%; Promotion of axonal outgrowth, measurement of bFGF in this test [2, 8]: about 120%; Promotion of spinal cord neurite outgrowth, measurement of bFGF in this test ([5]; reference, concentration not given): about 130%
11 | Cc1nc(OCC(=O)N(C)C2CCN(Cc3ccc(-c4ccccc4)cc3)CC2)nc(C)c1N [Compound 93, 2-(5-amino-4,6-dimethylpyrimidine-2-yloxy)-N-(1-(biphenyl-4-ylmethyl)piperidine-4-yl)-N-methylacetamide hydrochloride] | 138% | 143% | –
12 | Cc1nc(OCC(=O)N(C)C2CCN(C3CCCCC3)CC2)nc(C)c1N [Compound 79, 2-(5-amino-4,6-dimethylpyrimidine-2-yloxy)-N-(1-cyclohexylpiperidine-4-yl)-N-methylacetamide] | 133% | 123% | –
13 | Cc1nc(OCC(=O)N(C)C2CCN(CC(C)C)CC2)nc(C)c1N [Compound 73, 2-(5-amino-4,6-dimethylpyrimidine-2-yloxy)-N-(1-isobutylpiperidine-4-yl)-N-methylacetamide] | 139% | 131% | –
14 | Cc1cnc(Cl)nc1NCC(=O)N(C)C1CCN(Cc2ccccc2)CC1 [Compound 109, N-(1-benzylpiperidine-4-yl)-2-(2-chloro-5-methylpyrimidine-4-ylamino)-N-methylacetamide] | 124% | 159% | affinity to chemokine receptor CCR3 [3]: 16%
